From patent publication US6756382B2, “Amide substituted imidazoquinolines” (3M Innovative Properties Company, priority 1999, dated 2004)
Counter-ions that a name gives are not always drawn.

Columns and labels:
[1] = test system: tumor necrosis factor (α); experiment: Cytokine induction in human cells: tumor necrosis factor (α) secreted by PBMCs, ELISA; format: cell-based; details: PBMC, incubated 18 to 24 hours, TNF determined by ELISA, read-out: Lowest Effective Concentration (μM) Tumor Necrosis Factor
Excerpt: (§1) An in vitro human blood cell system was used to assess cytokine induction by compounds of the invention. Activity is based on the measurement of interferon and tumor necrosis factor (α) (IFN and TNF, respectively) secreted into culture media as described by Testerman et. al. In “Cytokine Induction by the Immunomodulators Imiquimod and S-27609”, Journal of Leukocyte Biology, 58, 365-372 (September, 1995).
(§2) Whole blood is collected by venipuncture into EDTA vacutainer tubes from healthy human donors. Peripheral blood mononuclear cells (PBMCs) are separated from whole blood by density gradient centrifugation using Histopaque®-1077 (Sigma Chemicals, St. Louis, Mo.). The PBMCs are suspended at 3-4×10^6 cells/mL in RPMI 1640 medium containing 10% fetal bovine serum, 2 mM L-glutamine and 1% penicillin/streptomycin solution (RPMI complete). The PBMC suspension is added to 48 well flat bottom sterile tissue culture plates (Costar, Cambridge, Mass. or Becton Dickinson Labware, Lincoln Park, N.J.) containing an equal volume of RPMI complete media containing test compound.
(§3) The compounds are solubilized in dimethyl sulfoxide (DMSO). The DMSO concentration should not exceed a final concentration of 1% for addition to the culture wells.
(§4) The solution of test compound is added at 60 μM to the first well containing RPMI complete and serial (three fold or ten fold) dilutions are made. The PBMC suspension is then added to the wells in an equal volume, bringing the test compound concentrations to the desired range. The final concentration of PBMC suspension is 1.5-2×10^6 cells/mL. The plates are covered with sterile plastic lids, mixed gently and then incubated for 18 to 24 hours at 37° C. in a 5% carbon dioxide atmosphere.
(§5) Following incubation the plates are centrifuged for 5-10 minutes at 1000 rpm (˜200×g) at 4° C. The cell culture supernatant is removed with a sterile polypropylene pipet and transferred to sterile polypropylene tubes. Samples are maintained at −30 to −70° C. until analysis. The samples are analyzed for interferon (α) by either ELISA or bioassay and for tumor necrosis factor (α) by ELISA.
Tumor necrosis factor (α) (TNF)concentration is determined using ELISA kits available from Genzyme, Cambridge, Mass.; R&D Systems, Minneapolis, Minn.; or Pharmingen, San Diego, Calif.
(§6) The table below lists the lowest concentration found to induce interferon and the lowest concentration found to induce tumor necrosis factor for each compound. […] Unless otherwise indicated, the interferon biosynthesis was determined by ELISA.

[2] = test system: interferon (α); experiment: Cytokine induction in human cells: interferon secreted by PBMCs, ELISA; format: cell-based; details: PBMC, incubated 18 to 24 hours, interferon determined by ELISA, read-out: Lowest Effective Concentration (μM) Interferon
Excerpt: as §1, §2, §3, §4, §5
Interferon (α) concentration is determined by ELISA using a Human Multi-Species kit from PBL Biomedical Laboratories, New Brunswick, N.J.
as §6

Structure (SMILES) | melting point | minimal effective concentration [1] | minimal effective concentration [2]
Nc1nc2ccccc2c2c1ncn2CCCCCNC(=O)c1ccccc1 (as salt: hydrochloride) [Example 10, N^1-[5-(4-Amino-1H-imidazo[4,5-c]quinolin-1-yl)pentyl]benzamide Hydrochloride] | 217 to 219 °C |  | 
Nc1nc2ccccc2c2c1ncn2CCCNC(=O)c1ccccc1 (as salt: hydrochloride) [Example 11, N^1-[3-(4-Amino-1H-imidazo[4,5-c]quinolin-1-yl)propyl]benzamide Hydrochloride] | 265 to 270 °C |  | 
CCOCc1nc2c(N)nc3ccccc3c2n1CCNC(=O)CCCCC1SCC2NC(=O)NC21 (centres unmarked) (as salt: trifluoroacetate) [Example 29, N^1-[2-(4-Amino-2-(ethoxymethyl)-1H-imidazo[4,5-c]quinolin-1-yl)ethyl]-5-(2-oxoperhydrothieno[3,4-d]imidazol-4-yl)pentanamide Ditrifluoroacetate] | 171 to 175 °C |  | 
Cl.Nc1nc2ccccc2c2c1ncn2CCCCNC(=O)c1ccccc1.O (hydrate or solvate) | 254 to 256 °C |  | 
Nc1nc2ccccc2c2c1ncn2CCCCNC(=O)c1cn(Cc2ccccc2)c2ccccc12 [Example 42, N^3-[4-(4-Amino-1H-imidazo[4,5-c]quinolin-1-yl)butyl]-1-benzyl-1H-3-indolecarboxamide] | 139 °C (dec.) |  | 
Nc1nc2ccccc2c2c1ncn2CCCCNC(=O)c1cccnc1 [Example 47, N^3-[4-(4-Amino-1H-imidazo[4,5-c]quinolin-1-yl)butyl]nicotinamide] | 188.6 to 189.5 °C |  | 
Nc1nc2ccccc2c2c1ncn2CCCCNC(=O)c1ccncc1 [Example 48, N^4-[4-(4-Amino-1H-imidazo[4,5-c]quinolin-1-yl)butyl]isonicotinamide] | 213 to 213.7 °C |  | 
Nc1nc2ccccc2c2c1ncn2CCCCNC(=O)c1ccnc2ccccc12 [Example 49, N^4-[4-(4-Amino-1H-imidazo[4,5-c]quinolin-1-yl)butyl]-4-quinolinecarboxamide] | 214.5 to 215.2 °C |  | 
COCCc1nc2c(N)nc3ccccc3c2n1CCCCNC(=O)c1cc(-c2ccccc2)nc2ccccc12 [Example 50, N^4-[4-(4-Amino-2-(2-methoxyethyl)-1H-imidazo[4,5-c]quinolin-1-yl)butyl]-2-phenyl-4-quinolinecarboxamide] | 118 °C (dec.) |  | 
CCCCCSc1ncccc1C(=O)NCCCCn1cnc2c(N)nc3ccccc3c21 [Example 51, N^3-[4-(4-Amino-1H-imidazo[4,5-c]quinolin-1-yl)butyl]-2-(pentylsulfanyl)nicotinamide] | 158 to 161 °C |  | 
N#Cc1ccc(C(=O)NCCCCn2cnc3c(N)nc4ccccc4c32)cn1 [Example 52, N^3-[4-(4-Amino-1H-imidazo[4,5-c]quinolin-1-yl)butyl]-6-cyanonicotinamide] | 125 to 129 °C |  | 
Nc1nc2ccccc2c2c1ncn2CCCCNC(=O)c1ccc(Cl)nc1 [Example 53, N^3-[4-(4-Amino-1H-imidazo[4,5-c]quinolin-1-yl)butyl]-6-chloronicotinamide] | 144 to 148 °C (dec.) |  | 
Nc1nc2ccccc2c2c1ncn2CCCCNC(=O)c1ccc(OCC(F)(F)F)nc1 [Example 54, N^3-[4-(4-Amino-1H-imidazo[4,5-c]quinolin-1-yl)butyl]-6-(2,2,2-trifluoroethoxy)nicotinamide] | 192 to 194 °C (dec.) |  | 
COCCc1nc2c(N)nc3ccccc3c2n1CCCCNC(=O)c1ccc2ccccc2n1 [Example 55, N^2-{4-[4-Amino-2-(2-methoxyethyl)-1H-imidazo[4,5-c]quinolin-1-yl]butyl}-2-quinolinecarboxamide] | 78.1 to 79.9 °C |  | 
CC(C(=O)NCCCCn1cnc2c(N)nc3ccccc3c21)c1ccc(-c2ccccc2)c(F)c1 (centres unmarked) [Example 56, N^1-[4-(4-Amino-1H-imidazo[4,5-c]quinolin-1-yl)butyl]-2-(2-fluoro-4-biphenylyl)propanamide] | 76.1 to 79.9 °C |  | 
COCCc1nc2c(N)nc3ccccc3c2n1CCCCNC(=O)c1nccc2ccccc12 [Example 57, N^1-{4-[4-Amino-2-(2-methoxyethyl)-1H-imidazo[4,5-c]quinolin-1-yl]butyl}-1-isoquinolinecarboxamide] | 61 to 63 °C |  | 
CCCCc1ccc(C(=O)NCCCCn2c(CCOC)nc3c(N)nc4ccccc4c32)nc1 [Example 58, N^2-{4-[4-Amino-2-(2-methoxyethyl)-1H-imidazo[4,5-c]quinolin-1-yl]butyl}-5-butyl-2-pyridinecarboxamide] | 54.9 to 55.2 °C |  | 
COCCc1nc2c(N)nc3ccccc3c2n1CCCCNC(=O)c1c[nH]c2ccccc12 [Example 59, N^3-{4-[4-Amino-2-(2-methoxyethyl)-1H-imidazo[4,5-c]quinolin-1-yl]butyl}-3-indolecarboxamide] | 225.5 to 227.4 °C |  | 

Structure (SMILES) | melting point | minimal effective concentration [1] | minimal effective concentration [2]
COCCc1nc2c(N)nc3ccccc3c2n1CCCCNC(=O)c1ccc(-n2cccc2)cc1 [Example 60, N^1-{4-[4-Amino-2-(2-methoxyethyl)-1H-imidazo[4,5-c]quinolin-1-yl]butyl}-4-(1-pyrrolyl)benzamide] | 173 to 174.9 °C |  | 
COc1ccc(Cc2nc3c(N)nc4ccccc4c3n2CCCCNC(=O)c2ccc3ccccc3n2)cc1 [Example 61, N^2-{4-[4-Amino-2-(4-methoxybenzyl)-1H-imidazo [4,5-c]quinolin-1-yl]butyl}-2-quinolinecarboxamide] | 95.1 to 97.4 °C |  | 
COCCc1nc2c(N)nc3ccccc3c2n1CCCCNC(=O)C=C(C)C [Example 148] |  | 1 µM | 0.01 µM
COCCc1nc2c(N)nc3ccccc3c2n1CCCCNC(=O)C1CCCC1 [Example 149] |  | 1 µM | 0.001 µM
COCCc1nc2c(N)nc3ccccc3c2n1CCCCNC(=O)C1CCCCC1 [Example 150] |  | 0.1 µM | 0.001 µM
COCCc1nc2c(N)nc3ccccc3c2n1CCCCNC(=O)c1ccccc1C [Example 151] |  | > 10 µM | 0.0001 µM
COCCc1nc2c(N)nc3ccccc3c2n1CCCCNC(=O)[C@@H]1C[C@H]1c1ccccc1 [Example 153] |  | 0.1 µM | 0.0001 µM
COCCc1nc2c(N)nc3ccccc3c2n1CCCCNC(=O)c1cccc2ccccc12 [Example 154] |  | > 10 µM | 0.0001 µM
COCCc1nc2c(N)nc3ccccc3c2n1CCCCNC(=O)c1ccc(C(C)(C)C)cc1 [Example 156] |  | 1 µM | 0.001 µM
COCCc1nc2c(N)nc3ccccc3c2n1CCCCNC(=O)c1ccc(OC)c(OC)c1 [Example 158] |  | 1 µM | 0.001 µM
COCCc1nc2c(N)nc3ccccc3c2n1CCCCNC(=O)CCCCCCC(=O)OC [Example 159] |  | 1 µM | 0.01 µM
COCCc1nc2c(N)nc3c(c2n1CCCCNC(=O)c1ccccc1)CCCC3 [Example 172] |  | 1 µM | 0.0001 µM
COCCc1nc2c(N)nc3c(c2n1CCCCNC(=O)c1ccncc1)CCCC3 [Example 173] |  | 1 µM | 0.001 µM
COCCc1nc2c(N)nc3c(c2n1CCCCNC(=O)Cc1ccccc1)CCCC3 [Example 174] |  | 1 µM | 0.001 µM
COCCc1nc2c(N)nc3ccccc3c2n1CCCCNC(=O)[C@H]1CC(=O)N(C)[C@@H]1c1cccnc1 [Example 184, (2S,3S)-N-{4-[4-amino-2-(2-methoxyethyl)-1H-imidazo[4,5-c]quinolin-1-yl]butyl}-1-methyl-5-oxo-2-pyridin-3-ylpyrrolidine-3-carboxamide] |  | 1.11 µM | 0.12 µM
CCCCc1nc2c(N)nc3ccccc3c2n1CCCNC(=O)c1cc2ccccc2cn1 [Example 188, N-[3-(4-amino-2-butyl-1H-imidazo[4,5-c]quinolin-1-yl)propyl]isoquinoline-3-carboxamide] |  | 1.11 µM | 0.37 µM
Nc1nc2ccccc2c2c1ncn2CCCCCCCCNC(=O)c1ccccc1 [Example 191, N-[8-(4-amino-1H-imidazo[4,5-c]quinolin-1-yl)octyl]benzamide] |  | > 30 µM | > 30 µM
